Reference: ChEMBL document CHEMBL3991601, “The target landscape of clinical kinase drugs” (Science, 2017)
Active and inactive are the calls of the source. Rule as the data show it, for most assays here: actives have a measured Kd and inactives only a lower limit.

Each compound was assayed against T1, Serine/threonine-protein kinase Nek1 (Homo sapiens, UniProt Q96PY6).
T1 sequence (Q96PY6 whole entry): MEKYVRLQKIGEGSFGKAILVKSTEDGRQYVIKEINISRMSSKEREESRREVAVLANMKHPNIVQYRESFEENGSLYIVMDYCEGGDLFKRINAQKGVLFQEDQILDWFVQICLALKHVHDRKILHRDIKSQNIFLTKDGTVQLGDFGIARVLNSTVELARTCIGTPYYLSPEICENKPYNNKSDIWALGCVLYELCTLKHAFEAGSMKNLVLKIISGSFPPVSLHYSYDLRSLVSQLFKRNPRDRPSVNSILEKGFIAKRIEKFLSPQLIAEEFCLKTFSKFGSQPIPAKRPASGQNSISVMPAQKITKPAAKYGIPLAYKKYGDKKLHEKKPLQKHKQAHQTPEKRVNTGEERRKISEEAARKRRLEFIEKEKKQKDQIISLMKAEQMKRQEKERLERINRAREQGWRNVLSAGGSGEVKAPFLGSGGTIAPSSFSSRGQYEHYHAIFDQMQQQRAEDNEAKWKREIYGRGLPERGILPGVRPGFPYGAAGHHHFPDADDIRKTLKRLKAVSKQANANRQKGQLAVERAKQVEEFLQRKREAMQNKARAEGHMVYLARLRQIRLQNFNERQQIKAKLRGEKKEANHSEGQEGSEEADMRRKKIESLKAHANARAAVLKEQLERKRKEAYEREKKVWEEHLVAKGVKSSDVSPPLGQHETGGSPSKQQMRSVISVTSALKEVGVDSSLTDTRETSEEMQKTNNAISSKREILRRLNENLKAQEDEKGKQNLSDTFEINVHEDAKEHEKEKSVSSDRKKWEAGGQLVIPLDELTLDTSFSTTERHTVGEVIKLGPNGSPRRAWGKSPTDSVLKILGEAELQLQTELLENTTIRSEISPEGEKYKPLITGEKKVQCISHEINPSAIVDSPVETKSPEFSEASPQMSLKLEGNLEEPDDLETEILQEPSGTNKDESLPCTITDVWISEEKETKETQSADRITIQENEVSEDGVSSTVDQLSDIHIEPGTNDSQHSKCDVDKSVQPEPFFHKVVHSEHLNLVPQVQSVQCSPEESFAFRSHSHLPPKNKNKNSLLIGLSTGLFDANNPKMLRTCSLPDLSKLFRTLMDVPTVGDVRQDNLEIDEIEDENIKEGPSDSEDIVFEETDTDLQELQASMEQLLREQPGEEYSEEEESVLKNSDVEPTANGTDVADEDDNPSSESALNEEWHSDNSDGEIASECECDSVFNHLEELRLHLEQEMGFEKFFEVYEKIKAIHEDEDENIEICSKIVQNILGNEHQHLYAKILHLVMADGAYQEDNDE
Also: in the data inactive means no Kd found up to 30 µM.

Structure (SMILES)	Kd
C[C@@H]1CN(Cc2ccc(F)cc2)[C@@H](C)CN1C(=O)c1cc2c(C(=O)C(=O)N(C)C)cn(C)c2cc1Cl [TALMAPIMOD]	> 30 µM (inactive)
CN1CCC(COc2cnc(-c3cccc(Cn4nc(-c5cccc(C#N)c5)ccc4=O)c3)nc2)CC1 [TEPOTINIB]	> 30 µM (inactive)
O=c1sn(-c2cccc3ccccc23)c(=O)n1Cc1ccccc1 [TIDEGLUSIB]	> 30 µM (inactive)
COc1cc2nccc(Oc3ccc(NC(=O)Nc4cc(C)on4)c(Cl)c3)c2cc1OC [TIVOZANIB]	> 30 µM (inactive)
CC(=O)Nc1cccc(-n2c(=O)n(C3CC3)c(=O)c3c(Nc4ccc(I)cc4F)n(C)c(=O)c(C)c32)c1 [TRAMETINIB]	> 30 µM (inactive)
CN1N=C(N)c2cn([C@@H]3O[C@H](COP(=O)(O)O)[C@@H](O)[C@H]3O)c3ncnc1c23 [TRICIRIBINE PHOSPHATE]	> 30 µM (inactive)
CC(C)Nc1cc(-c2c[nH]c(C(=O)N[C@H](CO)c3cccc(Cl)c3)c2)c(Cl)cn1 [ULIXERTINIB]	> 30 µM (inactive)
CCCS(=O)(=O)Nc1ccc(F)c(C(=O)c2c[nH]c3ncc(-c4ccc(Cl)cc4)cc23)c1F [VEMURAFENIB]	> 30 µM (inactive)
CC[C@@H]1C(=O)N(C)c2cnc(Nc3ccc(C(=O)N[C@H]4CC[C@H](N5CCN(CC6CC6)CC5)CC4)cc3OC)nc2N1C(C)C [VOLASERTIB]	> 30 µM (inactive)
CCn1c(=O)c(-c2cc[nH]n2)cc2c(C)nc(N)nc21 [VOXTALISIB]	> 30 µM (inactive)
O=C(Nc1ccc(-c2ccnc(Nc3ccc(N4CCOCC4)cc3)n2)cc1)C1CCCN1 (stereo not drawn) [XL-019]	> 30 µM (inactive)

Each compound was assayed against T2, Serine/threonine-protein kinase TBK1 (Homo sapiens, UniProt Q9UHD2).
T2 sequence (Q9UHD2 whole entry): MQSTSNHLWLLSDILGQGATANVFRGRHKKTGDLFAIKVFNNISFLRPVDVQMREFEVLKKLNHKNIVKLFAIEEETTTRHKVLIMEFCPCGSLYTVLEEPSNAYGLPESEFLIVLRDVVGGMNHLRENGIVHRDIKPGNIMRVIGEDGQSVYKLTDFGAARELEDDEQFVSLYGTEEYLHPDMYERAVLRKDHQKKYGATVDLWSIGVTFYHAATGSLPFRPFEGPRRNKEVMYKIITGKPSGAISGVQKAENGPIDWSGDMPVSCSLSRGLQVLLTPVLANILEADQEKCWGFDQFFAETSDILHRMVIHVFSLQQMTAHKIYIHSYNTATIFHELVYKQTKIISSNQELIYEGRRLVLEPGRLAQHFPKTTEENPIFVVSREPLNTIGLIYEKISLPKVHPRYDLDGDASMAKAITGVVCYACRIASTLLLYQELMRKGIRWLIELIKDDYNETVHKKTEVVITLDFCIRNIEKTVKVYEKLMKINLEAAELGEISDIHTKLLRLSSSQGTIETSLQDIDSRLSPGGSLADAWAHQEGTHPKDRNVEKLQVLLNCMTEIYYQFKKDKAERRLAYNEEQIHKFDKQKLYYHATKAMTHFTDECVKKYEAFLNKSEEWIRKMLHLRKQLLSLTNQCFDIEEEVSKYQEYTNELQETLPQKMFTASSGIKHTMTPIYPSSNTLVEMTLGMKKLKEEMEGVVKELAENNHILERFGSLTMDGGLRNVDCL

Structure (SMILES)	Kd
C[C@@H]1CN(Cc2ccc(F)cc2)[C@@H](C)CN1C(=O)c1cc2c(C(=O)C(=O)N(C)C)cn(C)c2cc1Cl [TALMAPIMOD]	> 30 µM (inactive)
CN1CCC(COc2cnc(-c3cccc(Cn4nc(-c5cccc(C#N)c5)ccc4=O)c3)nc2)CC1 [TEPOTINIB]	> 30 µM (inactive)
O=c1sn(-c2cccc3ccccc23)c(=O)n1Cc1ccccc1 [TIDEGLUSIB]	> 30 µM (inactive)
COc1cc2nccc(Oc3ccc(NC(=O)Nc4cc(C)on4)c(Cl)c3)c2cc1OC [TIVOZANIB]	> 30 µM (inactive)
CC(=O)Nc1cccc(-n2c(=O)n(C3CC3)c(=O)c3c(Nc4ccc(I)cc4F)n(C)c(=O)c(C)c32)c1 [TRAMETINIB]	> 30 µM (inactive)
CN1N=C(N)c2cn([C@@H]3O[C@H](COP(=O)(O)O)[C@@H](O)[C@H]3O)c3ncnc1c23 [TRICIRIBINE PHOSPHATE]	> 30 µM (inactive)
CC(C)Nc1cc(-c2c[nH]c(C(=O)N[C@H](CO)c3cccc(Cl)c3)c2)c(Cl)cn1 [ULIXERTINIB]	> 30 µM (inactive)
CCCS(=O)(=O)Nc1ccc(F)c(C(=O)c2c[nH]c3ncc(-c4ccc(Cl)cc4)cc23)c1F [VEMURAFENIB]	> 30 µM (inactive)
CC[C@@H]1C(=O)N(C)c2cnc(Nc3ccc(C(=O)N[C@H]4CC[C@H](N5CCN(CC6CC6)CC5)CC4)cc3OC)nc2N1C(C)C [VOLASERTIB]	> 30 µM (inactive)
CCn1c(=O)c(-c2cc[nH]n2)cc2c(C)nc(N)nc21 [VOXTALISIB]	> 30 µM (inactive)
O=C(Nc1ccc(-c2ccnc(Nc3ccc(N4CCOCC4)cc3)n2)cc1)C1CCCN1 (stereo not drawn) [XL-019]	0.561 µM (active)

Each compound was assayed against T3, Serine/threonine-protein kinase ICK (Homo sapiens, UniProt Q9UPZ9).
T3 sequence (Q9UPZ9 whole entry): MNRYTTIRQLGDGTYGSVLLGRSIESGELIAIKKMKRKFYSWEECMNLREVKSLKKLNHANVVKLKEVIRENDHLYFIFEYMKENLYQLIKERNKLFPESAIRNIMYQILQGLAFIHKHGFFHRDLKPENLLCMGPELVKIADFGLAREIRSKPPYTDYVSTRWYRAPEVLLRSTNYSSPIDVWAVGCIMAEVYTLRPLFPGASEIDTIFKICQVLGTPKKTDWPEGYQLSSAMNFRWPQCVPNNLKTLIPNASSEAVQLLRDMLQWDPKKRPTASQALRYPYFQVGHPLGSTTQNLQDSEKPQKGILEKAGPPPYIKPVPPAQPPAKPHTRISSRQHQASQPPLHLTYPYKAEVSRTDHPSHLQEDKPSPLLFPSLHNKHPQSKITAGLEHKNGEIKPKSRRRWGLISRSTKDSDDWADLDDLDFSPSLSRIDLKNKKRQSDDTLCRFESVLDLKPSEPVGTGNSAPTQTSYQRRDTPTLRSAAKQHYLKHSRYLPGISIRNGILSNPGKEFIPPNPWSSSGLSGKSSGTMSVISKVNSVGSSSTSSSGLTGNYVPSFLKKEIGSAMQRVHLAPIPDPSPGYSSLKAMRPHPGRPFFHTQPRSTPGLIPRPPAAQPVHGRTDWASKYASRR

Structure (SMILES)	Kd
C[C@@H]1CN(Cc2ccc(F)cc2)[C@@H](C)CN1C(=O)c1cc2c(C(=O)C(=O)N(C)C)cn(C)c2cc1Cl [TALMAPIMOD]	> 30 µM (inactive)
CN1CCC(COc2cnc(-c3cccc(Cn4nc(-c5cccc(C#N)c5)ccc4=O)c3)nc2)CC1 [TEPOTINIB]	> 30 µM (inactive)
O=c1sn(-c2cccc3ccccc23)c(=O)n1Cc1ccccc1 [TIDEGLUSIB]	> 30 µM (inactive)
COc1cc2nccc(Oc3ccc(NC(=O)Nc4cc(C)on4)c(Cl)c3)c2cc1OC [TIVOZANIB]	> 30 µM (inactive)
CC(=O)Nc1cccc(-n2c(=O)n(C3CC3)c(=O)c3c(Nc4ccc(I)cc4F)n(C)c(=O)c(C)c32)c1 [TRAMETINIB]	> 30 µM (inactive)
CN1N=C(N)c2cn([C@@H]3O[C@H](COP(=O)(O)O)[C@@H](O)[C@H]3O)c3ncnc1c23 [TRICIRIBINE PHOSPHATE]	> 30 µM (inactive)
CC(C)Nc1cc(-c2c[nH]c(C(=O)N[C@H](CO)c3cccc(Cl)c3)c2)c(Cl)cn1 [ULIXERTINIB]	> 30 µM (inactive)
CCCS(=O)(=O)Nc1ccc(F)c(C(=O)c2c[nH]c3ncc(-c4ccc(Cl)cc4)cc23)c1F [VEMURAFENIB]	> 30 µM (inactive)
CC[C@@H]1C(=O)N(C)c2cnc(Nc3ccc(C(=O)N[C@H]4CC[C@H](N5CCN(CC6CC6)CC5)CC4)cc3OC)nc2N1C(C)C [VOLASERTIB]	> 30 µM (inactive)
CCn1c(=O)c(-c2cc[nH]n2)cc2c(C)nc(N)nc21 [VOXTALISIB]	> 30 µM (inactive)
O=C(Nc1ccc(-c2ccnc(Nc3ccc(N4CCOCC4)cc3)n2)cc1)C1CCCN1 (stereo not drawn) [XL-019]	> 30 µM (inactive)
